# Experimental data published in patent US9073975B2, “Cyclic peptides, their preparation and their use as inhibitors of the platelet adhesion” (SANOFI, priority 2010, dated 2015).
# Starred links: 1 amine or outer side, 2 acyl side, 3 side chain; linkers in the order of their positions; H or OH if unused. Positions of bridges follow the written chain, without caps; N, C: chain ends. Non-standard residues stand in square brackets, D forms with d. Residues, ends and D or L forms follow the SMILES beside them. ξ: configuration not given here. X1 = CSCC[C@H](NN[C@@H](CCCNC(=N)N)C(=O)C(=O)[C@H](CCC(=O)O)N[*:2])C(=O)[*:1]; NHCH2(1,3-C6H4)CH2CO = O=C(Cc1cccc(CN[*:1])c1)[*:2]; X3 = O=C(Cc1ccc(CN[*:1])cc1)[*:2]; Chg = N[C@H](C(=O)O)C1CCCCC1; Orn = NCCC[C@H](N)C(=O)O; Dab = NCC[C@H](N)C(=O)O; Nva = CCC[C@H](N)C(=O)O; Ahp = NCCCCCCC(=O)O; Ahx = NCCCCCC(=O)O; ξA = CC(N)C(=O)O
# Biological target: T1, recombinant human vWF-A1 domain (Homo sapiens, UniProt P07359)
# T1 construct: whole blood drawn from voluntary donors; made in house; host or cells: E. coli (vWF-A1); washed platelets from human donor blood (GPIb, endogenous)
# T1 sequence (P07359 17-652): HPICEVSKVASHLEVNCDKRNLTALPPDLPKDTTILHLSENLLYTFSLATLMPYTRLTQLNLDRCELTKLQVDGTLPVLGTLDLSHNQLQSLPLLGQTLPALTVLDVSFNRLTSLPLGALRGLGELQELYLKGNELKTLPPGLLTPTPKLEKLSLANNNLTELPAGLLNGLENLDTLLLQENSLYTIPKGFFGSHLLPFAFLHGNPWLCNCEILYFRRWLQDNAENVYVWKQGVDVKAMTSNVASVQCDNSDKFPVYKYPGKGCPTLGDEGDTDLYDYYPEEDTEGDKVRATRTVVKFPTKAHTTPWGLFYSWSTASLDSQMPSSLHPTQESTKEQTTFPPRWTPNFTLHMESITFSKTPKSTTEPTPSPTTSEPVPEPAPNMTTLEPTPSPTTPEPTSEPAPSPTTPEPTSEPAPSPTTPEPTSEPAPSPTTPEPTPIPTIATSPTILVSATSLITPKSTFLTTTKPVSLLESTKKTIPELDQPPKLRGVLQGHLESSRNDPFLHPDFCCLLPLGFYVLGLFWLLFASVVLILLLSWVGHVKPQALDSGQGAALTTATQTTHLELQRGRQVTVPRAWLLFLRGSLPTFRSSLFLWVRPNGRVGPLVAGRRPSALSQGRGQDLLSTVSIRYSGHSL
# T1 sequence (P13224 26-206 partner): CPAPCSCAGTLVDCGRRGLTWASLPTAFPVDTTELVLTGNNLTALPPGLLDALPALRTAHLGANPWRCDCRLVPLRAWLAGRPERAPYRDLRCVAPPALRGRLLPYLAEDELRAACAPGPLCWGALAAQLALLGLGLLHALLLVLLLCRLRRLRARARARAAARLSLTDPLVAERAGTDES
# T1 sequence (P14770 17-177 partner): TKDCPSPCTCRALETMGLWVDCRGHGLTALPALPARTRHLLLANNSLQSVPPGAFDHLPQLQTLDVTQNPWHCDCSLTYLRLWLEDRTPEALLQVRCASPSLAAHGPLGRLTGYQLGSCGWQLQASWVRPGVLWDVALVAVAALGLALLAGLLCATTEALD
# Test: Static human platelet adhesion to recombinant human vWF-A1 domain
# Type: cell-based
# Settings: not given
# Experimental: The activity of compounds of the formula I can be shown by procedures known in the art, for example by determining their inhibition of the binding of platelets to vWF A1 domain in an appropriate assay. To this end, assay plates can be coated with vWF-A1 domain. […] Then fluorescence-labeled thrombocytes are added and incubated for 90 minutes. In a complex washing procedure all non-bound thrombocytes are removed and the plates are measured, for example in a laser-based reader Acumen Explorer or a bulk reader like Spectramax. […] To assess the effect of compounds on the interaction of the GPIb complex on platelets with vWF, an assay system was used measuring binding of human platelets to recombinant human vWF-A1 domain under static conditions in the presence and absence of the compounds. […] Platelet rich plasma was carefully removed, transferred to a fresh container and spun down for 15 min at 120 g. Platelet rich plasma was carefully transferred again to fresh containers, PGE1 (0.5 μg/ml, Sigma) was added and the suspension was allowed to rest for 5 min. This was followed by another centrifugation step for 15 min at 360 g. The supernatant was discarded and the cell pellets were carefully resuspended in tyrode buffer (NaCl, 137 mM (Sigma S-3014); KCl, 2.7 mM (Sigma P-9541); NaHCO3,12 mM ([…] 31437); NaH2PO4×2H2O, 0.36 mM (Merck 6345); […] After 5 min of resting the suspension was spun down for 15 min at 300 g. The supernatant was discarded and the pellets were carefully resuspended in TBS buffer (Tris-HCl, 50 mM (Fluka 93371); NaCl, 120 mM (Sigma S-3014); KCl, 2.7 mM (Sigma P-9541); CaCl2, 0.05 mM (Sigma C-3306); MgCl2×6 H2O, 2 mM (Sigma M-2670); […] The platelet count was adjusted to 2×10^5 cells/μl, and the suspensions from individual donors were pooled at this stage. The platelets were allowed to rest for 30 min at room temperature before calcein AM (2.5 μM per 2×10^5 cells/μl (Molecular Probes C-3099)) was added. This was followed by 15 min incubation in the dark. Cells were diluted to 5×10^4 cells/μl and ReoPro (3 μg/ml (Centocor B. V., Leiden, N L)) was added, followed by a 10 min incubation period in the dark before adding the platelets to the assay plates. 96 well plates (Greiner hb, black, clear bottom, F, 655097) were coated with human recombinant vWF-A1 domain (1.5 μg/well, AA 475-706, expressed in E. coli) in Tris buffer (pH 7.4; Tris-HCl, 25 mM; NaCl, 150 mM) and incubated for 1 h at room temperature. After washing the wells 3× with TBS, blocking buffer (TBS with 5% BSA) was added followed by an incubation for 1 h. The wells were washed again 3× with TBS before 200 μl TBS were added to each well, preventing them from drying out. TBS was flicked out and serial dilutions of the test compound were added. The washed and calcein AM labeled thrombocytes were added to the wells (2.5×10^6 cells/well). Following an adhesion period of 1.5 h in the dark the wells were washed 3× with TBS. Measurement of fluorescence per well was performed in a SpectraMax M5 reader (Molecular Devices). From the raw data % inhibition and IC50 values were calculated.
row,SMILES,IC50
1,"CSCC[C@@H]1NC(=O)[C@H](CCCNC(=N)N)NC(=O)[C@H](CCC(=O)O)NC(=O)[C@H]([C@@H](C)O)NC(=O)Cc2cccc(c2)CNC(=O)[C@H](CC(C)C)NC(=O)[C@H](CC(N)=O)NC(=O)[C@H](Cc2c[nH]cn2)NC(=O)[C@H](CC(C)C)NC(=O)[C@H](C)NC1=O [Example 2, Cyclo[Leu-His-Asn-Leu-NH-X4-X3-X2-X1-CO-Thr-Glu-Arg-Met-Ala]] (cyclo(ALHNL[NHCH2(1,3-C6H4)CH2CO]TERM))",< 1000 nM
2,"CSCC[C@@H]1NC(=O)[C@H](CCCNC(=N)N)NC(=O)[C@H](CCC(=O)O)NC(=O)[C@H]([C@@H](C)O)NC(=O)Cc2ccc(cc2)CNC(=O)[C@H](CC(C)C)NC(=O)[C@H](CC(N)=O)NC(=O)[C@H](Cc2c[nH]cn2)NC(=O)[C@H](CC(C)C)NC(=O)[C@H](C)NC1=O [Example 3, Cyclo[Leu-His-Asn-Leu-NH-X4-X3-X2-X1-CO-Thr-Glu-Arg-Met-Ala]] (cyclo(ALHNL[X3]TERM))",1000 to 10000 nM

# Same assay, conditions: washed calcein AM labeled human platelets, static conditions, 1.5 h adhesion; read-out: Activity (IC50 for inhibition of the binding of platelets to vWF A1 domain)
row,IC50,SMILES
1,< 1000 nM,"CSCC[C@@H]1NC(=O)[C@H](CCCNC(=N)N)NC(=O)[C@H](CCC(=O)O)NC(=O)[C@H](CCN)NC(=O)CCCCCCNC(=O)[C@H](CC(C)C)NC(=O)[C@H](CC(N)=O)NC(=O)[C@H](Cc2c[nH]cn2)NC(=O)[C@H](CC(C)C)NC(=O)[C@H](C)NC1=O [Example 24, Cyclo[Leu-His-Asn-Leu-NH—(CH2)6—CO-Dbu-Glu-Arg-Met-Ala]] (cyclo(ALHNL[Ahp][Dab]ERM))"
2,< 1000 nM,"CC(C)C[C@@H]1NC(=O)[C@H](C)NC(=O)[C@H](CC(C)C)NC(=O)[C@H](CCCNC(=N)N)NC(=O)[C@H](CCC(=O)O)NC(=O)[C@H]([C@@H](C)O)NC(=O)CCCCCCNC(=O)[C@H](CC(C)C)NC(=O)[C@H](CC(N)=O)NC(=O)[C@H](Cc2c[nH]cn2)NC1=O [Example 38, Cyclo[Leu-His-Asn-Leu-NH—(CH2)6—CO-Thr-Glu-Arg-Leu-Ala]] (cyclo(ALHNL[Ahp]TERL))"
3,< 1000 nM,"CSCC[C@@H]1NC(=O)[C@H](CCCNC(=N)N)NC(=O)[C@H](CCC(=O)O)NC(=O)[C@H](CCC(N)=O)NC(=O)CCCCCCNC(=O)[C@H](CC(C)C)NC(=O)[C@H](CC(N)=O)NC(=O)[C@H](Cc2c[nH]cn2)NC(=O)[C@H](CC(C)C)NC(=O)[C@H](C)NC1=O [Example 25, Cyclo[Leu-His-Asn-Leu-NH—(CH2)6—CO-Gln-Glu-Arg-Met-Ala]] (cyclo(ALHNL[Ahp]QERM))"
4,1000 to 10000 nM,"CCC[C@@H]1NC(=O)[C@H](CCSC)NC(=O)[C@H](CCCNC(=N)N)NC(=O)[C@H](CCC(=O)O)NC(=O)[C@H]([C@@H](C)O)NC(=O)CCCCCCNC(=O)[C@H](CC(C)C)NC(=O)[C@H](CC(N)=O)NC(=O)[C@H](Cc2c[nH]cn2)NC(=O)[C@H](CC(C)C)NC1=O [Example 31, Cyclo[Leu-His-Asn-Leu-NH—(CH2)6—CO-Thr-Glu-Arg-Met-Nva]] (cyclo([Ahp]TERM[Nva]LHNL))"
5,1000 to 10000 nM,"CSCC[C@@H]1NC(=O)[C@H](CCCNC(=N)N)NC(=O)[C@H](CCC(=O)O)NC(=O)[C@H]([C@@H](C)O)NC(=O)CCCCCCNC(=O)[C@H](CC(C)C)NC(=O)[C@H](CC(N)=O)NC(=O)[C@H](Cc2c[nH]cn2)NC(=O)[C@H](CC(C)C)NC(=O)[C@H](CCC(N)=O)NC1=O [Example 55, Cyclo[Leu-His-Asn-Leu-NH—(CH2)6—CO-Thr-Glu-Arg-Met-Gln]] (cyclo([Ahp]TERMQLHNL))"
6,< 1000 nM,"CSCC[C@@H]1NC(=O)[C@H](CCCN)NC(=O)[C@H](CCC(=O)O)NC(=O)[C@H]([C@@H](C)O)NC(=O)CCCCCCNC(=O)[C@H](CC(C)C)NC(=O)[C@H](CC(N)=O)NC(=O)[C@H](Cc2c[nH]cn2)NC(=O)[C@H](CC(C)C)NC(=O)[C@H](C)NC1=O [Example 28, Cyclo[Leu-His-Asn-Leu-NH—(CH2)6—CO-Thr-Glu-Orn-Met-Ala]] (cyclo(ALHNL[Ahp]TE[Orn]M))"
7,1000 to 10000 nM,"CC(C)C[C@@H]1NC(=O)[C@H](C)NC(=O)[C@H](C2CCCCC2)NC(=O)[C@H](CCCNC(=N)N)NC(=O)[C@H](CCC(=O)O)NC(=O)[C@H]([C@@H](C)O)NC(=O)CCCCCCNC(=O)[C@H](CC(C)C)NC(=O)[C@H](CC(N)=O)NC(=O)[C@H](Cc2c[nH]cn2)NC1=O [Example 39, Cyclo[Leu-His-Asn-Leu-NH—(CH2)6—CO-Thr-Glu-Arg-Chg-Ala]] (cyclo(ALHNL[Ahp]TER[Chg]))"
8,< 1000 nM,"COC[C@@H]1NC(=O)[C@H](CCCNC(=N)N)NC(=O)[C@H](CCC(=O)O)NC(=O)[C@H]([C@@H](C)O)NC(=O)CCCCCCNC(=O)[C@H](CC(C)C)NC(=O)[C@H](CC(N)=O)NC(=O)[C@H](Cc2c[nH]cn2)NC(=O)[C@H](CC(C)C)NC(=O)[C@H](C)NC1=O [Example 45, Cyclo[Leu-His-Asn-Leu-NH—(CH2)6—CO-Thr-Glu-Arg-Amp-Ala]] (cyclo(ALHNL[Ahp]TERS(Me)))"
9,1000 to 10000 nM,"CSCC[C@@H]1NC(=O)[C@H](CCCNC(=N)N)NC(=O)[C@H](CCC(=O)O)NC(=O)[C@H]([C@@H](C)O)NC(=O)CCCCCCNC(=O)[C@H](CC(C)C)NC(=O)[C@H](CC(N)=O)NC(=O)[C@@H](Cc2c[nH]cn2)NC(=O)[C@H](CC(C)C)NC(=O)[C@H](C)NC1=O [Example 33, Cyclo[Leu-D-His-Asn-Leu-NH—(CH2)6—CO-Thr-Glu-Arg-Met-Ala]] (cyclo(AL[dH]NL[Ahp]TERM))"

# Further lines, the compound ahead of its results:
row,SMILES,IC50
1,"CSCC[C@@H]1NC(=O)[C@H](CCCNC(=N)N)NC(=O)[C@H](CCC(=O)O)NC(=O)[C@H]([C@@H](C)O)NC(=O)CCCCCNC(=O)[C@H](CC(C)C)NC(=O)[C@H](CC(N)=O)NC(=O)[C@H](Cc2c[nH]cn2)NC(=O)[C@H](CC(C)C)NC(=O)[C@H](C)NC1=O [Example 11, Cyclo[Leu-His-Asn-Leu-NH—(CH2)5—CO-Thr-Glu-Arg-Met-Ala]] (cyclo(ALHNL[Ahx]TERM))",1000 to 10000 nM
2,"CSCC[C@@H]1NN[C@@H](CCCNC(=N)N)C(=O)C(=O)[C@H](CCC(=O)O)NC(=O)[C@H]([C@@H](C)O)NC(=O)CCCCCCNC(=O)[C@H](CC(C)C)NC(=O)[C@H](CC(N)=O)NC(=O)[C@H](Cc2cnc[nH]2)NC(=O)[C@H](CC(C)C)NC(=O)C(C)NC1=O (stereo partly drawn) [Example 1, Cyclo[Leu-His-Asn-Leu-NH—(CH2)6—CO-Thr-Glu-Arg-Met-Ala]] ([ξA]LHNL[Ahp]T; linker N-C via X1)",< 1000 nM
3,"CC[C@H](C)[C@@H]1NC(=O)[C@H](CCCNC(=N)N)NC(=O)[C@H](CCC(=O)O)NC(=O)[C@H]([C@@H](C)O)NC(=O)CCCCCCNC(=O)[C@H](CC(C)C)NC(=O)[C@H](CC(N)=O)NC(=O)[C@H](Cc2c[nH]cn2)NC(=O)[C@H](CC(C)C)NC(=O)[C@H](C)NC1=O [Example 18, Cyclo[Leu-His-Asn-Leu-NH—(CH2)6—CO-Thr-Glu-Arg-Ile-Ala]] (cyclo(ALHNL[Ahp]TERI))",1000 to 10000 nM
4,"CSCC[C@@H]1NC(=O)[C@H](CCCNC(=N)N)NC(=O)[C@H](CCC(=O)O)NC(=O)[C@H](CC(N)=O)NC(=O)CCCCCCNC(=O)[C@H](CC(C)C)NC(=O)[C@H](CC(N)=O)NC(=O)[C@H](Cc2c[nH]cn2)NC(=O)[C@H](CC(C)C)NC(=O)[C@H](C)NC1=O [Example 22, Cyclo[Leu-His-Asn-Leu-NH—(CH2)6—CO-Asn-Glu-Arg-Met-Ala]] (cyclo(ALHNL[Ahp]NERM))",< 1000 nM
5,"CC[C@H](C)[C@@H]1NC(=O)[C@H](C)NC(=O)[C@H](CCSC)NC(=O)[C@H](CCCNC(=N)N)NC(=O)[C@H](CCC(=O)O)NC(=O)[C@H]([C@@H](C)O)NC(=O)CCCCCCNC(=O)[C@H](CC(C)C)NC(=O)[C@H](CC(N)=O)NC(=O)[C@H](Cc2c[nH]cn2)NC1=O [Example 14, Cyclo[Ile-His-Asn-Leu-NH—(CH2)6—CO-Thr-Glu-Arg-Met-Ala]] (cyclo(AIHNL[Ahp]TERM))",1000 to 10000 nM
